Patent publication US20250325573A1, “Anti-Cancer Saccharide-Linked Dithiocarbamate Compounds” (Anglia Ruskin University Higher Education Corporation, priority 2022, published 2025)

Experiments:
Type in all cases: cell-based
[1] = system: MDA-MB-231; experiment: MTT cytotoxicity assay, breast cancer cell line MDA-MB-231
[2] = system: A549; experiment: MTT cytotoxicity assay, lung cancer cell line A549
[3] = system: breast cancer cell line MDA-MB-231; experiment: Microscopy images of breast cancer cells MDA-MB-231; conditions: for concentration showing apoptotic signs (shrinkage, cell detachment, membrane blebbing): 24 hours of incubation
[4] = system: lung cancer cell line A549; experiment: Microscopy images of lung cancer cells A549; conditions: for cytotoxicity against lung cancer cells (microscopy): with and without copper(II) 10 μM, boosted by adding copper
[5] = system: H630 WT; experiment: MTT cytotoxicity assay, colorectal cancer cell line H630 WT; conditions: 72 h
Method: (§1) The H630 WT (passage 12-21) and H630 R10 (passage 4-13) cells were seeded in 96-well plates at seeding density of 1×10^4 cells/well in Dulbecco's modified Eagle's medium (DMEM) with 10% FBS, 1 mM sodium pyruvate, 2 mM L-glutamine and 0.1 mM non-essential amino acids. Cells were incubated at 37° C., 5% CO2 and 95% relative humidity. Cells were constantly exposed to different concentrations of the tested compound in combination with 10 μM of CuCl2 for 72 h and then subjected to a standard 3-(4,5-Dimethylthiazol-2-yl)-2,5-Diphenyltetrazolium bromide (MTT) assay. The experiments were carried out in triplicates and the IC50 values were calculated (see FIG. 2).

[6] = system: H630 R10; experiment: MTT cytotoxicity assay, colorectal cancer cell line H630 R10 (resistant to 5FU 10 μM); conditions: 72 h
Method: as §1
5FU was purchased from Sigma Aldrich, Dorset, UK.

[7] = system: colorectal cancer cell line H630 WT; experiment: Microscopy images of colorectal cancer cells H630 WT; conditions: 500 μM, copper(II) 10 μM, 72 hours
[8] = Homo sapiens, A549, 72 h, with Cu (10 μM CuCl2)
[9] = Homo sapiens, MDA-MB-231, 72 h, without copper(II)
[10] = Homo sapiens, NCI-H630, with Cu (10 μM CuCl2)
[11] = comparative agent as listed, no added metal named
[12] = Homo sapiens, MDA-MB-231, 72 h, with Cu (10 μM CuCl2)
[13] = Homo sapiens, NCI-H630, comparative agent as listed, no added metal named

CCN(CC)C(=S)SC1O[C@H](CO)[C@@H](O)[C@H](O)[C@H]1O (stereo in doubt) [Ga-DDC, Galactosyl diethyldithiocarbamate] gave an IC50 ([1]; with Cu (10 μM CuCl2), 72 h) of 17.7 ± 8.2 µM.
In the case of CCN(CC)C(=S)SC1O[C@H](COC(C)=O)[C@@H](OC(C)=O)[C@H](OC(C)=O)[C@H]1OC(C)=O (stereo partly drawn) [Tetra-DDC, β-D-glucopyranose, 1-thio-, 2,3,4,6-tetraacetate 1-(N,N-diethylcarbamodithioate)], the IC50 [2, 8] is reported as 53.4 ± 11.5 µM.
In the case of CCN(CC)C(=S)SC1O[C@H](CO)[C@@H](O)[C@H](O)[C@H]1O (stereo partly shown) [G-DDC, Glycosyl diethyldithiocarbamate], the IC50 [1, 9] is reported as 2180 ± 356 µM, the IC50 ([1]; with Cu (10 μM CuCl2), 72 h) is reported as 348 ± 44.7 µM and the “concentration showing apoptotic signs (shrinkage, cell detachment, membrane blebbing)” value ([3]; with copper(II) 10 μM) is reported as 250 µM. For the same compound, the “concentration showing signs of apoptosis (shrinkage, cell detachment)” value ([3]; without copper(II), 24 hours) was 8 mM, the “concentration showing slight toxicity effect (cells started to detach)” value ([3]; without copper(II), 24 hours) was 4 mM and the “cytotoxicity against lung cancer cells (microscopy)” value ([4]; 72 h) was “cytotoxic”. The “concentration showing signs of apoptosis (shrinkage, cell detachment)” value ([4]; without copper(II), 24 hours) was 8 mM, the “concentration showing slight toxicity effect (cells started to detach)” value ([4]; without copper(II), 24 hours) was 4 mM and the IC50 [2, 8] was 95.9 ± 21.3 µM. It also gave an IC50 [5, 10] of 127 ± 13.2 µM.
CCN(CC)C(=S)[S-].CCN(CC)C(=S)[S-].[Cu+2] [(DDC)2Cu, Cu(II) bis(N,N-diethyldithiocarbamate) complex, reference compound] gave an IC50 [6, 11] of 4.9 ± 1.6 µM, an IC50 ([2]; comparative agent as listed, no added metal named, 72 h) of 3.6 ± 0.7 µM and an IC50 [5, 11] of 5.9 ± 1.1 µM.
CCN(CC)C(=S)SC1CC(O)C(O)C(CO)O1 (stereo not shown) [DG-DDC, 2-Deoxy-glycosyl diethyldithiocarbamate] was tested, and the IC50 [1, 12] was 3.62 ± 0.22 µM, the IC50 [1, 9] was 2060 ± 54.7 µM and the “observation in cells (microscopy)” value [7] was “Cu(II) bis(N,N-diethyldithiocarbamate) complex crystals”. For the same compound, the “concentration showing apoptotic signs (shrinkage, cell detachment, membrane blebbing)” value ([3]; with copper(II) 10 μM) was 25 µM, the “toxic effect compared to glycosyl diethyldithiocarbamate at similar concentrations” value ([3]; without copper(II), 24 hours) was “more toxic effect” and the IC50 [6, 10] was 5.3 ± 0.9 µM. The “cytotoxicity against lung cancer cells (microscopy)” value ([4]; 72 h) was “cytotoxic”, the “toxic effect compared to glycosyl diethyldithiocarbamate at similar concentrations” value ([4]; without copper(II), 24 hours) was “more toxic effect” and the IC50 [2, 8] was 2.79 ± 0.25 µM. The IC50 ([2]; Homo sapiens, A549, 72 h, with Zn (ZnCl2 10 μM)) was 49.6 ± 18.6 µM and the IC50 [5, 10] was 5.2 ± 1.7 µM.
In the case of CCN(CC)C(=S)SC1O[C@H](CO)[C@@H](O[C@@H]2O[C@H](CO)[C@H](O)[C@H](O)[C@H]2O)[C@H](O)[C@H]1O (stereo partly shown) [La-DDC, Lactosyl diethyldithiocarbamate], the IC50 [1, 12] is reported as 89.7 ± 12.6 µM.
CCN(CC)C(=S)SC1OC[C@@H](O)[C@H](O)[C@H]1O (stereo partly shown) [XY-DDC, Xylosyl diethyldithiocarbamate] showed an IC50 [5, 10] of 6.9 ± 2.6 µM.
Compound O=c1[nH]cc(F)c(=O)[nH]1 [Example 5FU, fluorouracil, reference compound] has an IC50 [6, 13] of 462 ± 8 µM and an IC50 [5, 13] of 4.6 ± 1.6 µM.
CCN(CC)C(=S)SSC(=S)N(CC)CC [DS, disulfiram, reference compound] was tested, and the IC50 [1, 9] was > 8000 µM.
CCN(CC)C(=S)SC1OC(CO)C(O)C(O)C1NC(C)=O (stereo not shown) [AG-DDC, 2-N-acetyl-glycosylamine diethyldithiocarbamate] gave an IC50 [5, 10] of 5.8 ± 1.2 µM.
Work on CCN(CC)C(=S)SC1O[C@H](CO)[C@@H](O)[C@H](O)[C@@H]1O (stereo partly shown) [Ma-DDC, Mannosyl diethyldithiocarbamate] yielded an IC50 [1, 12] of 78.6 ± 12.6 µM.
In the case of O=CC[C@@H](O)[C@H](O)[C@H](O)CO [2-deoxy-glucose, reference compound], the features of apoptosis ([3]; 1000 μM, with copper(II) 10 μM, 24 hours) is reported as “no features of apoptosis”, the “concentration showing slight toxicity effect (cells started to detach)” value ([3]; without copper(II), 24 hours) is reported as 8 mM and the “cytotoxic effect (microscopy)” value ([4]; 1 mM, with or without copper(II), 72 h) is reported as “no cytotoxic effect”. For the same compound, the “concentration showing slight toxicity effect (cells started to detach)” value ([4]; without copper(II), 24 hours) was 8 mM.
